Assay results: patent publication US9895390B2, “Methods and assays for combination treatment of cancer” (CHILDREN'S MEDICAL CENTER CORPORATION, priority 2012, dated 2018)
Where “and” joins values, the source holds several entries; their conditions need not be identical. Equal values may be shown once. Entries after “also recorded” stand apart in the source; their conditions may differ.

Experiments:
[1] = test system: HCC15; assay: Etoposide dose response curves with or without DZNep, stably transduced lines; assay type: cell-based, human; conditions: HCC15 control cells
Protocol: (§1) Cell lines were dissociated, counted and plated at 5000 cells per well in flat bottom opaque tissue culture treated 96 well plates (CytoOne). Edge wells were filled with PBS. The following day, 2× drug diluted in media was added to each well such that the well then contained 100 ul media with 1× drug concentration. After 4 days, Cell Titer Glo™ (Promega) was added and luminescence was read on a BioTec plate reader to determine relative cell number in each well. Data were averaged for triplicate or quadruplicate technical replicates, normalized to the untreated wells and input into GraphPad Prism software to extrapolate IC50.
as §1, with “concentration at the following doses: etoposide; 0, 0.1, 1, 3, 5, 7, 10, 50, 100, 500 μM, cisplatin; 0, 0.1, 1, 5, 10, 30, 70, 100, 500 μM, or doxorubicin; 0, 0.01, 0.1, 0.5, 1, 3, 5, 7, 10, 50 μM.” for “concentration.”, “CELLTITER-GLO™” for “Cell Titer Glo™”, “replicates and” for “replicates,”, “wells. […]” for “wells and input into GraphPad Prism software to extrapolate IC50.”

[2] = test system: H460; assay: as above; assay type: cell-based, human; conditions: H460 control cells
Protocol: as §1
as §1, with “concentration at the following doses: etoposide; 0, 0.1, 1, 3, 5, 7, 10, 50, 100, 500 μM, cisplatin; 0, 0.1, 1, 5, 10, 30, 70, 100, 500 μM, or doxorubicin; 0, 0.01, 0.1, 0.5, 1, 3, 5, 7, 10, 50 μM.” for “concentration.”, “CELLTITER-GLO™” for “Cell Titer Glo™”, “replicates and” for “replicates,”, “wells. […]” for “wells and input into GraphPad Prism software to extrapolate IC50.”

[3] = test system: human NSCLC lines; assay: Cytotox assays: chemotherapy dose response curves with or without EZH2 inhibitor, 4 days; assay type: cell-based
Protocol: as §1
Cell lines were dissociated, counted and plated at 5000 cells per well in flat bottom opaque tissue culture treated 96 well plates (CytoOne). Edge wells were filled with PBS. The following day, 2× drug diluted in media was added to each well such that the well then contained 100 ul media with 1× drug concentration at the following doses: etoposide; 0, 0.1, 1, 3, 5, 7, 10, 50, 100, 500 μM, cisplatin; 0, 0.1, 1, 5, 10, 30, 70, 100, 500 μM, or doxorubicin; 0, 0.01, 0.1, 0.5, 1, 3, 5, 7, 10, 50 μM. […] Data were averaged for triplicate or quadruplicate technical replicates and normalized to the untreated wells. Results from three or four independent biological replicate experiments were input into […] PRISM™ software to extrapolate IC50 and s.e.m. of IC50 for a given cell line.

[4] = test system: HCC15; assay: 7AAD cell cycle flow cytometry, stably transduced lines; assay type: cell-based, human
Protocol: (§2) Cell lines were plated at 1.5×10^6 cells per 10 cm plate and treated with drug for 4 days. Cells were then dissociated, fixed with 100% ice cold Ethanol for at least 2 hours, incubated for 30 minutes with 1 mg/mL RNase A and resuspended in 20 μg/mL 7AAD. 30,000 events were collected on the BD Facscalibur™ and analyzed with the ModFit LT™ software. In cases where etoposide treated cells had such abnormal ploidy that ModFit LT™ was unable to correctly model the cell cycle, the data was analyzed manually on FlowJo™ software by setting the gates on the etoposide sample and copying them to the etoposide+DZNep and etoposide shEZH2 samples.
(§3) For 7AAD-cell cycle analysis, cell lines were plated at 1.5×10^6 cells per 10 cm plate and treated with drug for 4 days. Cells were then dissociated, fixed with 100% ice cold Ethanol for at least 2 hours, incubated for 30 minutes with 1 mg/mL DNase-free RNase A (Thermo) and resuspended in 20 μg/mL 7-Aminoactinomycin D (7AAD; Invitrogen). 30,000 events were collected on the BD FORTESSA™ and analyzed with the MODFIT LT™ software. Results from three to four independent biological replicate experiments were averaged for each cell line.

[5] = test system: H460; assay: as above; assay type: cell-based, human; conditions: etoposide treated H460 shBrg1 and EGFR over-expression
Protocol: as §2, §3

[6] = test system: H157 xenografts; assay: Xenograft tumor growth in nude mice; assay type: in vivo, Foxn1nu (nude) mice
Protocol: (§4) To determine if the protected and sensitized phenotypes could be observed in vivo, cells were transplanted subcutaneously, tumors allowed to initiate, and mice treated with etoposide and DZNep. 12 days after cell injection, tumor bearing mice were randomized into groups that received either etoposide (20 mg/kg/day) or placebo (corn oil) daily for five days. The cohorts were further subdivided into groups that also received DZNep, either 2 mg/kg/day twice during the first week (dosing scheme A), or 1 mg/kg/day twice during the first two weeks (dosing scheme B).
(§5) Cell lines were dissociated into single cells, counted and resuspended at 1×10^6 cells per 250 μL of 1:1 media/matrigel (BD). 8- to 16-week-old Foxn1nu (nude) mice (Harlan) were injected subcutaneously with 1×10^6 cells in four spots on flanks. Chemo and DZNep were administered from day 12 to day 17 post injections, Etoposide: 20 mg/kg/day i.p. in corn oil once per day for 5 consecutive days, and DZNep 2 mg/kg/day i.p. in corn oil twice per week for 1 week (dosing scheme A) OR 1 mg/kg/day i.p. in corn oil twice per week for 2 weeks (dosing scheme B). Tumor growth was measured every other day by caliper.
as §5, with “2-4” for “four”, “Etoposide” for “Chemo”, “injections; etoposide:” for “injections, Etoposide:”, “week, or” for “week (dosing scheme A) OR”, “weeks.” for “weeks (dosing scheme B).”, “caliper. All mouse experiments were approved by the CHB Animal Care and Use Committee and by the Dana-Farber Cancer Institute Institutional Animal Care and Use Committee, both accredited by AAALAC, and were performed in accordance with relevant institutional and national guidelines and regulations.” for “caliper.”

[7] = test system: H23 xenografts; assay: Xenograft tumor growth in nude mice; assay type: in vivo, Foxn1nu (nude) mice; conditions: H23, DZNep 1 mg/kg/day twice per week for 2 weeks (dosing scheme B)
Protocol: as §4, §5
as §5, with “2-4” for “four”, “Etoposide” for “Chemo”, “injections; etoposide:” for “injections, Etoposide:”, “week, or” for “week (dosing scheme A) OR”, “weeks.” for “weeks (dosing scheme B).”, “caliper. All mouse experiments were approved by the CHB Animal Care and Use Committee and by the Dana-Farber Cancer Institute Institutional Animal Care and Use Committee, both accredited by AAALAC, and were performed in accordance with relevant institutional and national guidelines and regulations.” for “caliper.”

decrease in etoposide IC50 in response to DZNep [1]: 2 fold
increase in etoposide IC50 in response to DZNep [2]: 2 fold
SMILES: Nc1nccc2c1ncn2[C@@H]1C=C(CO)[C@@H](O)[C@H]1O [DZNep, 3-Deazaneplanocin A]
cell lines more sensitive to etoposide in the presence of DZNep ([3]; 1 μM DZNep, 4 days, panel of 29 (Example 1) or 26 (Example 2) lines): 16 of the 29 and 14 of the 26
sensitivity to etoposide in the presence of DZNep, protected lines ([3]; H23, H460 and H441, 1 μM DZNep, 4 days): less sensitive
sensitivity to etoposide in the presence of DZNep, sensitized lines ([3]; H157, HCC15, PC9, H157, A549, PC9, 1 μM DZNep, 4 days): more sensitive
pattern of sensitized and protected cells with cisplatin combined with DZNep ([3]; cis-platinum combined with DZNep): not observed
S phase change in response to DZNep ([4]; etoposide treated HCC15 Brg1 over-expression): dramatically smaller accumulation in S phase; also recorded: did not accumulate in S phase
S phase change in response to DZNep ([4]; etoposide treated HCC15 shEGFR): decrease in S phase; also recorded: no additional increase in S phase
S phase change in response to DZNep [5]: enriched for S phase
efficacy of dosing scheme B ([6]; H157, DZNep 1 mg/kg/day twice per week for 2 weeks): not as effective
tumor burden, DZNep alone vs untreated/vehicle ([6]; H157 xenografts, DZNep 2 mg/kg/day twice in first week (dosing scheme A)): effective at reducing tumor burden; also recorded: weakly effective
sensitivity of xenografts to DZNep as a single therapy [7]: very sensitive; also recorded: sensitive
